Legend:
Conditions in all cases: 72 h
Caco-2 [1] = test: relative viability EC50 (midpoint between 100% and the lowest measured viability); higher = less toxic
HepG2 [2] = test: as above
U2OS [3] = test: as above
Calu-3 [4] = test: as above
Vero E6 [5] = test: as above
Caco-2 [6] = test: drug sensitivity score (DSS) for viability; higher = more toxic; extreme values may be limits of the assay
HepG2 [7] = test: as above
U2OS [8] = test: as above
Calu-3 [9] = test: as above
Vero E6 [10] = test: as above
Caco-2 [11] = test: cell viability relative to DMSO; higher = less toxic
HepG2 [12] = test: as above
U2OS [13] = test: as above
Calu-3 [14] = test: as above
Vero E6 [15] = test: as above

Structure (SMILES)	relative viability EC50 (Caco-2 [1]) [µM]	relative viability EC50 (HepG2 [2]) [µM]	relative viability EC50 (U2OS [3]) [µM]	relative viability EC50 (Calu-3 [4]) [µM]	relative viability EC50 (Vero E6 [5]) [µM]	drug sensitivity score (Caco-2 [6])	drug sensitivity score (HepG2 [7])	drug sensitivity score (U2OS [8])	drug sensitivity score (Calu-3 [9])	drug sensitivity score (Vero E6 [10])	cell viability (Caco-2 [11]; 1 nM) [%]	cell viability (Caco-2 [11]; 10 nM) [%]	cell viability (Caco-2 [11]; 100 nM) [%]	cell viability (Caco-2 [11]; 1000 nM) [%]	cell viability (Caco-2 [11]; 10000 nM) [%]	cell viability (HepG2 [12]; 1 nM) [%]	cell viability (HepG2 [12]; 10 nM) [%]	cell viability (HepG2 [12]; 100 nM) [%]	cell viability (HepG2 [12]; 1000 nM) [%]	cell viability (HepG2 [12]; 10000 nM) [%]	cell viability (U2OS [13]; 1 nM) [%]	cell viability (U2OS [13]; 10 nM) [%]	cell viability (U2OS [13]; 100 nM) [%]	cell viability (U2OS [13]; 1000 nM) [%]	cell viability (U2OS [13]; 10000 nM) [%]	cell viability (Calu-3 [14]; 1 nM) [%]	cell viability (Calu-3 [14]; 10 nM) [%]	cell viability (Calu-3 [14]; 100 nM) [%]	cell viability (Calu-3 [14]; 1000 nM) [%]	cell viability (Calu-3 [14]; 10000 nM) [%]	cell viability (Vero E6 [15]; 1 nM) [%]	cell viability (Vero E6 [15]; 10 nM) [%]	cell viability (Vero E6 [15]; 100 nM) [%]	cell viability (Vero E6 [15]; 1000 nM) [%]	cell viability (Vero E6 [15]; 10000 nM) [%]
O=C(O)CCc1ccc(NCc2cccc(Oc3ccccc3)c2)cc1 [GW-9508]	> 10	> 10	> 10	> 10	> 10	0	0	0	0	0	95.4	98.4	102	112	106	97.1	101	96.9	99.8	96	91.9	97	98.6	102	97.6	90.9	100	107	106	104	94.1	96.1	97.8	95.2	101
CC(C)C(=O)OC[C@H]1O[C@@H](n2ccc(N)nc2=O)[C@](C)(F)[C@@H]1OC(=O)C(C)C [mericitabine]	> 10	> 10	> 10	> 10	> 10	0	0	0	0	0	93.9	86.9	96.3	91.1	102	89.3	99.3	94.1	102	91.6	97.1	94	98.6	97	97.4	110	88.1	108	109	106	92.5	97.6	99.3	93.6	91.5
C=CC(=O)Nc1cccc(Nc2nc(Nc3ccc(Oc4ccnc(C(=O)NC)c4)cc3)ncc2F)c1 [CNX-774]	2.07	2.15	1.58	> 10	2.14	5.5	5.2	6.2	0.4	5.6	98.7	105	103	90.4	30	98.6	104	110	91.4	31.8	92.4	111	98.3	83.9	32.9	92.8	102	99.6	96.3	86.6	98.1	98.1	103	90.7	26.9
Cc1ccc(/N=C/N(C)/C=N/c2ccc(C)cc2C)c(C)c1 [amitraz]	> 10	> 10	> 10	> 10	> 10	0	0	0	0	0	94.1	99.5	91.8	104	88.1	96	81.2	103	87.4	92.2	101	99.2	94.6	95.5	87.8	95.1	104	98.1	105	96.1	94.8	103	95.8	95.6	104
N[C@@H](Cn1ccc(=O)n(Cc2ccccc2C(=O)O)c1=O)C(=O)O [UBP-302]	> 10	> 10	> 10	> 10	> 10	0	0	0	0	0	91.6	93	91.2	89.6	98.1	103	101	97.9	101	104	99	95.5	97.6	92.7	98.7	105	94.8	107	115	107	101	98.6	103	101	102
N[C@H](C(=O)O)c1cc(O)no1 [ibotenic-acid]	> 10	> 10	> 10	> 10	> 10	0	0	0	0	0	92.9	94.2	93.6	97.2	96.5	91.3	104	95.1	93.3	93.9	97.8	97.5	96.6	102	92.4	93	93.7	105	93.6	94	102	101	99.1	99.4	100
CC(C)(C)c1ccc(S(=O)(=O)/C=C/C#N)cc1 [BAY-11-7085]	2.1	2	2.26	2.69	2.35	4.8	8	7.4	3.1	7.1	101	82.2	83.6	91.8	37.8	96.7	100	98.7	85.2	-0.4	101	99	102	89.1	-0.4	105	103	96	97	49.8	92.7	95.9	91.8	90.3	-0.3

— the supplement of paper PMC13380429
